Laboratory results taken from patent US20050118290A1, “Compositions and method for treatment of steroid/nuclear receptor-mediated diseases” (University of Singapore, priority 2003, published 2005).

Assays:
Assay type in all cases: cell-based
Glucocorticoid Receptor = biological target: T1, Glucocorticoid Receptor (Homo sapiens, UniProt P04150); test: GR (ARE)2-Luc luciferase reporter gene assay; conditions: HQ extract 0 ×10^−6 g/mL (hormone only)
T1 construct: expressed in transfected cells
T1 sequence (P04150 1-777): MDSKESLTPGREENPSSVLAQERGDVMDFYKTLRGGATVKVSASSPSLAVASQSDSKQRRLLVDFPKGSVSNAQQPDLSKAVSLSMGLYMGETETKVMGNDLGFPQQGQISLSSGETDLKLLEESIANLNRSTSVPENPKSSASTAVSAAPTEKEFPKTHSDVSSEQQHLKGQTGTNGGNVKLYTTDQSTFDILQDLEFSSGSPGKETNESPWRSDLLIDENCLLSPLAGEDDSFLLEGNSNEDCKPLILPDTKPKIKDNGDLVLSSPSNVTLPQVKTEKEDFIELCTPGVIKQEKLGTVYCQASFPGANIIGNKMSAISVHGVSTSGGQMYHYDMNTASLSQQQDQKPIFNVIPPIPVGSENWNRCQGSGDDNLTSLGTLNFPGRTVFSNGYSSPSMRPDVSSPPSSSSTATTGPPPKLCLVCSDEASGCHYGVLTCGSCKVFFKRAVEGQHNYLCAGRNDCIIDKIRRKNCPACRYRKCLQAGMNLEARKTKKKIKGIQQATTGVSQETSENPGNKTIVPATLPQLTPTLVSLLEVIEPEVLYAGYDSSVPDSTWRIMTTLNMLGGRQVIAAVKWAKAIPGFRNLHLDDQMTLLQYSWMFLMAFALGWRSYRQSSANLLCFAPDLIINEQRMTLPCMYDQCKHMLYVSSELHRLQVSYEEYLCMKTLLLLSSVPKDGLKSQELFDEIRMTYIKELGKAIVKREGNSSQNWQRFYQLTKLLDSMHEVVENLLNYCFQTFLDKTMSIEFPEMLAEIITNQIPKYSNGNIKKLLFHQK
Method: (§1) The capacity of HQ extract to activate other steroid receptors, namely AR, PR, GR, ERα and ERβ was examined. […] The (ARE)2-Luc plasmid consist of two repeats of Androgen Response Element (ARE) cloned upstream of the Luciferase Reporter gene in a pGL3-Basic vector (Promega).
(§2) AR, PR, GR and ERα and […] were determined by comparing luciferase activity in test cells with control cells exposed to vehicle (i.e., ethanol or methanol) only, analogous to the determination of PPAR activity as described in the previous examples.

Progesterone Receptor = biological target: T2, Progesterone Receptor (Homo sapiens, UniProt P06401); test: PR (ARE)2-Luc luciferase reporter gene assay; conditions: with progesterone 10×10^−6M
T2 construct: expressed in transfected cells; host or cells: HeLa (named for the formononetin and daidzein experiments)
T2 sequence (P06401 1-933): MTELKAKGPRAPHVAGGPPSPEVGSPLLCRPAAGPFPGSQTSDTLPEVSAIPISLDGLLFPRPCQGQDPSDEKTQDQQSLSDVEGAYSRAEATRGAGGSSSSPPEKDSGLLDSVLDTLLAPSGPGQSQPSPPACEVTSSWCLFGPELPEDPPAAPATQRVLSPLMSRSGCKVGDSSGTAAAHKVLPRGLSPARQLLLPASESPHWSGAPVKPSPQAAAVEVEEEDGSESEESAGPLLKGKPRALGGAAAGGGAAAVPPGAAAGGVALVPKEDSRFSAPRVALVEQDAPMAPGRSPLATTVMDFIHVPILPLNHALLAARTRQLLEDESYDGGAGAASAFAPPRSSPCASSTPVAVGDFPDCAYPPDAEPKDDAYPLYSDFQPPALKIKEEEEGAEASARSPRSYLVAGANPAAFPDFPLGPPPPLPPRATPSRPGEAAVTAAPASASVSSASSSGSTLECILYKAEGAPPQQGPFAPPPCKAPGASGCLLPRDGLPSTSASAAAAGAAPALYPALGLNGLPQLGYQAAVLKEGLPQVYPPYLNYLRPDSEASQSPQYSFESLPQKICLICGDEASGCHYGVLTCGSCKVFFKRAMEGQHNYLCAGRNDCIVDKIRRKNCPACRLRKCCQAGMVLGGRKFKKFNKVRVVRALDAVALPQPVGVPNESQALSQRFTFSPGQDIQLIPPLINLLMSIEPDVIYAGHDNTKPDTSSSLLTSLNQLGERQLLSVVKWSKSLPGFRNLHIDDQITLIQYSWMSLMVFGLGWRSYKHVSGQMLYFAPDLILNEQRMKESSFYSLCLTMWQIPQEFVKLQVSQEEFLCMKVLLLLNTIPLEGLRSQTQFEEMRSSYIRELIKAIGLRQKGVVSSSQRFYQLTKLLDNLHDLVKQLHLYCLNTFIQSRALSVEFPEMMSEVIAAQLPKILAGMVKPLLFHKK
Method: as §1, §2

PPARα = biological target: T3, PPARα (Homo sapiens, UniProt Q07869); test: Chimeric Gal4DBD-PPARαLBD receptor / UASg-luciferase reporter gene assay in HeLa cells
T3 construct: expressed in transfected cells; host or cells: HeLa
T3 sequence (Q07869 239-466 limits assumed): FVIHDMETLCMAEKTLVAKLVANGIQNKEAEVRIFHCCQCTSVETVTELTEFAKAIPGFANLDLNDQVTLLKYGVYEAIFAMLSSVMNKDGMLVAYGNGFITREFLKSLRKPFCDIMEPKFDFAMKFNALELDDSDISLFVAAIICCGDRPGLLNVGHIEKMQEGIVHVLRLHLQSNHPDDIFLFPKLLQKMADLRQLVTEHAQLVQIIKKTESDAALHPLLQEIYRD
From the text: (§3) In an example of such a reporter gene assay, a plasmid containing chimeric Ga14DBD-PPARLBD receptor cDNA was constructed by excising the ligand binding domain (LBD) of full length PPARγ and PPARα and ligating the resulting fragments in frame to the Ga14-DNA binding domain (DBD) of Saccharomyces cerevisiae in a pM vector (Clontech). Specifically, to construct Ga14DBD-PPARγLBD plasmid, pSG5 expression vector (Stratagene) containing full length PPARγ was excised with Rsa I and blunt ligated to Hind III site of pMGa14DBD expression plasmid (Clontech). To construct Ga14DBD-PPARαLBD plasmid, pSG5 expression vector (Stratagene) containing full length PPARα was excised with BstU I and BamH I and blunt-end ligated in frame to BamH I site of pMGa14DBD expression plasmid (Clontech). […] Ga14 DBD binds very strongly to the exogenous UASg promoter, thereby giving rise to a sensitive and specific assay. To measure PPARγ and PPARα agonist activity, HeLa cells were grown in 24-well microtiter plates and then transiently co-transfected with the two plasmids (chimeric PPAR receptor and UASg reporter gene) using Lipofectamine (Invitrogen). […] Concurrently, cells exposed to known PPAR ligands served as positive controls. Replicate wells, exposed to the vehicle solvent (i.e., ethanol or methanol) in which herbal extracts were dissolved, were used as negative controls. After the 40 hr incubation period, cells were rinsed with phosphate buffered saline (PBS), lysis buffer was added, and cell lysates were collected for measurement of luciferase activity using a luminometer. […] All data points are in triplicate. The data points represent the mean of triplicate wells. Luciferase activity in such an assay accurately reflects the activity of any ligands on PPARγ or PPARα.

[1] = biological target: T4, human estrogen receptor ERβ (Homo sapiens, UniProt Q92731); test: ERβ MMTV-ERE-LUC reporter gene assay in HeLa cells
T4 construct: expressed in transfected cells; host or cells: HeLa
T4 sequence (Q92731 whole entry): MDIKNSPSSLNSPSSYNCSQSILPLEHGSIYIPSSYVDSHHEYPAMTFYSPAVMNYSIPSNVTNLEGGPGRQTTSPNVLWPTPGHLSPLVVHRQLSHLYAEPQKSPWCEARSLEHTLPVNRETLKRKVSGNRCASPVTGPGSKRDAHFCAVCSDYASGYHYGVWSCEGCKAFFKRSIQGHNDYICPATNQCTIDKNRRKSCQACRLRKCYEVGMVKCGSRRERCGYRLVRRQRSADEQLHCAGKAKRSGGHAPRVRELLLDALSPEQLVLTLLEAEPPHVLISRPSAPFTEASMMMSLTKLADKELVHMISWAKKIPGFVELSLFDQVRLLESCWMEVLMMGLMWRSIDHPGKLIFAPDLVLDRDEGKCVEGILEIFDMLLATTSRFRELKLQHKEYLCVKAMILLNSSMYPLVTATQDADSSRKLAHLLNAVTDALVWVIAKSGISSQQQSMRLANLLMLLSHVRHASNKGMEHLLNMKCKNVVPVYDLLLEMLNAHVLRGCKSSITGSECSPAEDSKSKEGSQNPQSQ
Method: (§4) ERα and ERβ activity were assayed using plasmids encoding either ERα or ERβ co-transfected with the ERE-LUC reporter gene. To assay estrogen receptor agonist activity, HeLa cells were transiently co-transfected with two plasmids (Tcherepanova, et al., 2000) using Lipofectamine. The first plasmid comprised DNA encoding human estrogen receptor (either ERα or ERβ), and the second plasmid comprised an estrogen-driven reporter system comprising: a luciferase reporter gene (LUC) whose transcription is under the control of upstream regulatory elements comprising 4 copies of the vitellogenin estrogen response element (ERE) cloned into the Mouse Mammary Tumor Virus (MMTV) promoter (the full name of the reporter system being ‘MMTV-ERE-LUC’).
as §2

[2] = biological target: T5, human estrogen receptor ERα (Homo sapiens, UniProt P03372); test: ERα MMTV-ERE-LUC reporter gene assay in HeLa cells
T5 construct: expressed in transfected cells; host or cells: HeLa
T5 sequence (P03372 1-595): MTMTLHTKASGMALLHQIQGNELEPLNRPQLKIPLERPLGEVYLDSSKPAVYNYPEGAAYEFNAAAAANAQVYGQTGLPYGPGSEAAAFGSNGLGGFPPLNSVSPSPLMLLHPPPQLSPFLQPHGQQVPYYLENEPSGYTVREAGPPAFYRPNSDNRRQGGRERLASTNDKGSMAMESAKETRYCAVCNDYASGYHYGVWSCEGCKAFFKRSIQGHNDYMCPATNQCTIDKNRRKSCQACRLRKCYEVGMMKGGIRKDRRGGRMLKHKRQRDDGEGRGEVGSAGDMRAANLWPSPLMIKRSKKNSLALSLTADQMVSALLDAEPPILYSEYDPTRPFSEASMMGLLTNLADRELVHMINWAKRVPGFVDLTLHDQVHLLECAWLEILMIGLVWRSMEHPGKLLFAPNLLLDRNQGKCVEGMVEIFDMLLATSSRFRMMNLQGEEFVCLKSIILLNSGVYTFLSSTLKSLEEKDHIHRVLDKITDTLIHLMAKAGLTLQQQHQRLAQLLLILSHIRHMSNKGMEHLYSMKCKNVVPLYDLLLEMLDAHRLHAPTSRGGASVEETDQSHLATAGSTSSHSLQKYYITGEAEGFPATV
Method: as §4, §2

PPARγ = biological target: T6, PPARγ (Homo sapiens, UniProt P37231); test: Chimeric Gal4DBD-PPARγLBD receptor / UASg-luciferase reporter gene assay in HeLa cells
T6 construct: expressed in transfected cells; host or cells: HeLa
T6 sequence (P37231 238-503 limits assumed): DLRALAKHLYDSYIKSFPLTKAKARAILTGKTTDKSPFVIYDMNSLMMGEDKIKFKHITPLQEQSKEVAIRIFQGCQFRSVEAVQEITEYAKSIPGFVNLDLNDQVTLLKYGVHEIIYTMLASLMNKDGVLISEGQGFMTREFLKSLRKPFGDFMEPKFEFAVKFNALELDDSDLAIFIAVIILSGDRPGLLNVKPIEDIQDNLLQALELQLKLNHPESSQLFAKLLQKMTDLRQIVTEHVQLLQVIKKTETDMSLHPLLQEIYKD
From the text: as §3

Row | SMILES | Luciferase activity (Fold ± SE) Glucocorticoid Receptor/Hydrocortisone (1 × 10^−9 M) (Glucocorticoid Receptor) | increase of the activity of maximal doses of PR agonist (Progesterone Receptor) | increase of PPARα activity, up to (PPARα; Table 8) | increase of the activity of maximal doses of PPARα agonist (PPARα; with WY14643 30×10^−6M) | effect on ERβ activity of estradiol ([1]; 1 to 30×10^−6 g/mL + estradiol 1×10^−9M) | ERβ activity comparable to % maximal activity of Estradiol ([1]; 30×10^−6 g/ml) | ERα activity comparable to % maximal activity of Estradiol ([2]; 30×10^−6 g/ml) | increase of the activity of maximal doses of estradiol on ERα ([2]; with estradiol 1×10^−9M) | PPARγ activity when added to pioglitazone compared with pioglitazone alone (PPARγ; 3 to 30 ×10^−6 g/mL + pioglitazone 30×10^−6M) | increase of PPARγ activity, up to (PPARγ; Table 8)
1 | C[C@]12CCC(=O)C=C1CC[C@@H]1[C@@H]2[C@@H](O)C[C@@]2(C)[C@H]1CC[C@]2(O)C(=O)CO [Hydrocortisone, hydrocortisone] | 11014 ± 285 Fold | – | – | – | – | – | – | – | – | –
2 | COc1ccc(-c2coc3cc(O)ccc3c2=O)cc1 [formononetin, 7-Hydroxy-4′-methoxyisoflavone] | – | 1.8 fold | ≤ 10 fold | 4.4 fold | did not inhibit or augment the activity of estradiol alone | ~400% | comparable to maximal activity of Estradiol | 3.2 fold | no different than that observed with pioglitazone alone | up to 6 fold
